Like-named read-outs stand apart in the source and are kept apart here.
Molecular target: BACE1 (Homo sapiens, UniProt P56817)
Experiment: In Vitro Enzymatic BACE FRET (Fluorescence Resonance Energy Transfer) Assay
Assay type: biochemical
Conditions: read-out: BACE1 FRET assay
Method: In Vitro Enzymatic BACE FRET (Fluorescence Resonance Energy Transfer) Assay (Enzyme Assay Data in the Example Tables I, II, III & IV) The assay buffer used in this screen is 0.05 M acetate, pH 4.2, 10% DMSO final, 100 uM genapol (which is a nonionic detergent, below its Critical Micelle Concentration). […] This assay is effectively started by the addition of FRET substrate (50 nM) and the combination is incubated for one hour. The FRET assay is terminated with by addition of Tris buffer, which raises the pH to neutrality, and the fluorescence is determined. The FRET substrate is a peptide with commercially available fluorophore and quencher, on opposite sides of the BACE cleavage site. […]

[1] = in vitro BACE FRET enzyme assay, IC50 class symbols

BACE1, sequence (P56817 46-501, species assumed): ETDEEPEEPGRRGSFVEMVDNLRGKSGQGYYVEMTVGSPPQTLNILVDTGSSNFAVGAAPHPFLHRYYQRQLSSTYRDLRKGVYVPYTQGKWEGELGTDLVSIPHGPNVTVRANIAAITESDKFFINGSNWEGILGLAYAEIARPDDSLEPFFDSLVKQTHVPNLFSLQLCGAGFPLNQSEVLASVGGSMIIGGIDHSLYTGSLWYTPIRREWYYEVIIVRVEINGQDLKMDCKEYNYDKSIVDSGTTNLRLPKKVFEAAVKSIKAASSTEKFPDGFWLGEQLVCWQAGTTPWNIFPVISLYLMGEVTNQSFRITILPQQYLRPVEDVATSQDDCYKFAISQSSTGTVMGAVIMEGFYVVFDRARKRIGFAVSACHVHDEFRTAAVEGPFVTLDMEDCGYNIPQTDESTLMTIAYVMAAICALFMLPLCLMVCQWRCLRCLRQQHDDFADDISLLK

SMILES | IC50 [1] [nM] | other results
Cc1cccc(-c2ccc3c(c2)C2(COC(N)=N2)c2ccc(C)cc2O3)c1 (stereo not shown) [Example 33, 6′-methyl-2′-(3-methylphenyl)spiro[1,3-oxazole-4,9′-xanthen]-2-amine] | – | IC50 (Table 1): > 5000 nM
NC1=N[C@]2(CO1)c1cc(C(=O)CC3CCCC3)ccc1Oc1ccc(-c3cncnc3)cc12 [Example 102, 1-((4S)-2-amino-7′-(5-pyrimidinyl)spiro[1,3-oxazole-4,9′-xanthen]-2′-yl)-2-cyclopentylethanone] | – | IC50 (Table II): < 100 nM
Cc1ccc2c(c1)Oc1ccc(-c3ccc(OC(F)(F)F)cc3)cc1C21COC(N)=N1 (stereo not shown) [Example 36, 6′-methyl-2′-(4-(trifluoromethoxy)phenyl)spiro[1,3-oxazole-4,9′-xanthen]-2-amine] | – | IC50 (Table 1): > 5000 nM
NC1=N[C@@]2(CO1)c1cc(-c3cncc(Cl)c3)ccc1Oc1cnc(-c3cccnc3)cc12 [compound 303] | < 100 | –
NC1=N[C@]2(CO1)c1cc(OC[C@H]3CC3(F)F)ccc1Oc1ccc(-c3cncnc3)cc12 [Example 98, (4S)-2′-(((1R)-2,2-difluorocyclopropyl)methoxy)-7′-(5-pyrimidinyl)spiro[1,3-oxazole-4,9′-xanthen]-2-amine] | – | IC50 (Table II): < 100 nM
NC1=N[C@]2(CO1)c1cc(OC[C@@H]3CC3(F)F)ccc1Oc1ccc(-c3cncnc3)cc12 [Example 97, (4S)-2′-(((1S)-2,2-difluorocyclopropyl)methoxy)-7′-(5-pyrimidinyl)spiro[1,3-oxazole-4,9′-xanthen]-2-amine] | – | IC50 (Table II): < 100 nM
NC1=N[C@]2(CO1)c1cc(C#CC3CCCC3)ccc1Oc1ccc(-c3cncnc3)cc12 [Example 95, (4R)-2′-(cyclopentylethynyl)-7′-(5-pyrimidinyl)spiro[1,3-oxazole-4,9′-xanthen]-2-amine] | – | IC50 (Table II): < 100 nM
Cc1ccc2c(c1)Oc1ccc(-c3ccccc3C)cc1C21COC(N)=N1 (stereo not shown) [Example 34, 6′-methyl-2′-(2-methylphenyl)spiro[1,3-oxazole-4,9′-xanthen]-2-amine] | – | IC50 (Table 1): > 5000 nM
CC(C)(C)C[C@H](O)c1ccc2c(c1)[C@]1(COC(N)=N1)c1cc(-c3cncnc3)ccc1O2 [Example 49, (1S)-1-((4S)-2-amino-7′-(5-pyrimidinyl)spiro[1,3-oxazole-4,9′-xanthen]-2′-yl)-3,3-dimethyl-1-butanol] | – | IC50 (Table II): < 100 nM
NC1=NC2(CO1)c1cc(Cl)ccc1Oc1ccc(-c3cncnc3)cc12 (stereo not shown) [Example 13, 2′-chloro-7′-(5-pyrimidinyl)spiro[1,3-oxazole-4,9′-xanthen]-2-amine] | – | IC50 (Table 1): 100 to 1000 nM
COc1ccc2c(c1)[C@@]1(COC(N)=N1)c1cc(-c3cncnc3)ccc1O2 [Example 31, (4R)-2′-methoxy-7′-(5-pyrimidinyl)spiro[1,3-oxazole-4,9′-xanthen]-2-amine] | – | IC50 (Table 1): > 5000 nM
NC1=N[C@@]2(CO1)c1cc(C#CC3CC3)ccc1Oc1ccc(OCC3CCCO3)cc12 (stereo partly drawn) [Example 103, (4S)-2′-(cyclopropylethynyl)-7′-(tetrahydro-2-furanylmethoxy)spiro[1,3-oxazole-4,9′-xanthen]-2-amine] | – | IC50 (Table II): < 100 nM
NC1=N[C@@]2(CO1)c1cc(-c3cncc(Cl)c3)ccc1Oc1cnc(-c3ccncc3)cc12 [compound 302] | < 100 | –
NC1=N[C@]2(CO1)c1cc(OCC3CCCCO3)ccc1Oc1ccc(-c3cncnc3)cc12 (stereo partly drawn) [Example 107, (4S)-2′-(5-pyrimidinyl)-7′-(tetrahydro-2H-pyran-2-ylmethoxy)spiro[1,3-oxazole-4,9′-xanthen]-2-amine] | – | IC50 (Table II): < 100 nM
COc1ccc2c(c1)[C@@]1(COC(N)=N1)c1cc(N3CCOCC3)cc(F)c1O2 [compound 304] | 100 to 1000 | –
NC1=N[C@]2(CO1)c1cc(C#CC3CC3)ccc1Oc1ccc(-c3cncnc3)cc12 [Example 101, (4R)-2′-(cyclopropylethynyl)-7′-(5-pyrimidinyl)spiro[1,3-oxazole-4,9′-xanthen]-2-amine] | – | IC50 (Table II): < 100 nM
NC1=N[C@]2(CO1)c1cc(OC[C@@H]3CCCO3)ccc1Oc1ccc(-c3cncnc3)cc12 [Example 105, (4S)-2′-(5-pyrimidinyl)-7′-((2S)-tetrahydro-2-furanylmethoxy)spiro[1,3-oxazole-4,9′-xanthen]-2-amine] | – | IC50 (Table II): < 100 nM

Continued, in another order:

IC50 [1] [nM] | SMILES | other results
< 100 | Cc1ccc(-c2cnc3c(c2)[C@]2(COC(N)=N2)c2cc(-c4cccnc4F)ccc2O3)cn1 [compound 339] | –
< 100 | NC1=N[C@@]2(CO1)c1cc(-c3c(F)ccnc3F)ccc1Oc1ncc(C3=CCOCC3)cc12 [compound 321] | –
< 100 | NC1=N[C@@]2(CO1)c1cc(-c3ccc(F)nc3)ccc1Oc1cnc(-c3ccnc(F)c3)cc12 [compound 311] | –
< 100 | CC(C)(C#N)COc1ccc2c(c1)[C@@]1(COC(N)=N1)c1cc(-c3ccc(OC(F)(F)F)cc3)cnc1O2 [compound 342] | –
< 100 | CC(C)(C)C#Cc1cnc2c(c1)[C@]1(COC(N)=N1)c1cc(-c3cccc(C#N)c3)ccc1O2 [compound 318] | –
< 100 | CC(C)(C#N)COc1ccc2c(c1)[C@@]1(COC(N)=N1)c1cc(-c3ccc(C#N)cc3)cnc1O2 [compound 340] | –
< 100 | CC1(C#Cc2cnc3c(c2)[C@]2(COC(N)=N2)c2cc(-c4cccnc4)ccc2O3)COC1 [compound 315] | –
< 100 | CC(C)(C)C#Cc1cnc2c(c1)[C@]1(COC(N)=N1)c1cc(-c3cncc(C#N)c3)ccc1O2 [compound 317] | –
< 100 | NC1=N[C@@]2(CO1)c1cc(-c3cncc(Cl)c3)ccc1Oc1cnc(C3=CCOCC3)cc12 [compound 309] | –
< 100 | Cc1cncc(-c2ccc3c(c2)[C@@]2(COC(N)=N2)c2cc(-c4ccnc(C)c4)ncc2O3)c1 [compound 307] | –
< 100 | Cc1cc(-c2cc3c(cn2)Oc2ccc(-c4ccc(F)nc4)cc2[C@@]32COC(N)=N2)ccn1 [compound 313] | –
100 to 1000 | NC1=N[C@@]2(CO1)c1cc(-c3ccc(F)nc3)ccc1Oc1cnc(Cl)cc12 [compound 310] | –
< 100 | CC(C)(C#Cc1cnc2c(c1)[C@]1(COC(N)=N1)c1cc(-c3cccnc3)ccc1O2)N1CCC1 [compound 320] | –
< 100 | Cc1cncc(-c2ccc3c(c2)[C@@]2(COC(N)=N2)c2cc(-c4ccncc4)ncc2O3)c1 [compound 305] | –
< 100 | Cc1cncc(-c2ccc3c(c2)[C@@]2(COC(N)=N2)c2cc(C4CCOCC4)ncc2O3)c1 [compound 308] | –
< 100 | NC1=N[C@@]2(CO1)c1cc(-c3cccc(Cl)c3)ccc1Oc1ncc(-c3ccncc3)cc12 [compound 345] | –
< 100 | COc1ccc(-c2cnc3c(c2)[C@]2(COC(N)=N2)c2cc(-c4cccnc4F)ccc2O3)cn1 [compound 344] | –
< 100 | Cn1cc(-c2cnc3c(c2)[C@]2(COC(N)=N2)c2cc(-c4cccnc4F)ccc2O3)cn1 [compound 346] | –
< 100 | CC1(C)CCN(c2cnc3c(c2)[C@]2(COC(N)=N2)c2cc(-c4cccnc4F)ccc2O3)C1 [compound 316] | –
< 100 | CC(C)(C)COc1cnc2c(c1)[C@]1(COC(N)=N1)c1cc(C#CC3(C)COC3)ccc1O2 [compound 323] | –
< 100 | Cc1cncc(-c2ccc3c(c2)[C@@]2(COC(N)=N2)c2cc(-c4cccnc4)ncc2O3)c1 [compound 306] | –
< 100 | CC(C)(C)C#Cc1cnc2c(c1)[C@]1(COC(N)=N1)c1cc(OCC(C)(C)C#N)ccc1O2 [compound 319] | –
< 100 | CC1(C#Cc2cnc3c(c2)[C@]2(COC(N)=N2)c2cc(-c4cccc(Cl)c4)ccc2O3)COC1 [compound 314] | –

Reference: US8426447B2, “Spiro-tricyclic ring compounds as beta-secretase modulators and methods of use” (Amgen Inc., priority 2008, dated 2013)
